Reference: PMC5994430, “Mitochondrial Delivery of Phenol Substructure Triggers Mitochondrial Depolarization and Apoptosis of Cancer Cells” (Frontiers in Pharmacology, 2018)

What was measured:
[1] = system: CCD-18Co cells; experiment: Cell viability (neutral red), IC50; assay type: cell-based; conditions: Homo sapiens, CCD-18Co colon-derived normal fibroblasts, CompuSyn
Source text: (§1) Human colon cancer HT29 cells, colon-derived normal fibroblast CCD-18Co cells, lung cancer A549 cells, normal human bronchial epithelial (immortalized with adenovirus 12-SV40 virus hybrid Ad12SV40) BEAS-2B cells, breast cancer MDA-MB-231 cells, normal breast epithelial MCF10A cells, human osteosarcoma U-2OS cells were purchased from ATCC (Manassas, VA, United States). Primary osteoblasts were generated as reported previously ([Buondonno et al., 2016]). HMM and HMC were primary cells stabilized in culture as described ([Aldieri et al., 2004]). The use of primary cells was approved by Ethical Committee of the San Luigi Gonzaga Hospital, Orbassano, (protocol #126/2016). All subjects gave written informed consent in accordance with the Declaration of Helsinki. Cells were maintained in medium supplemented with 10% v/v fetal bovine serum, 1% v/v penicillin-streptomycin, 1% v/v L-glutamine. Morphological analysis was performed with a bright field microscope (Leica Microsystems, Wetzlar, Germany). At least 5 fields/experimental condition were examined.
(§2) The extracellular release of LDH, considered an index of cell damage and necrosis, was measured spectrophotometrically, as reported ([Riganti et al., 2013b]). The extracellular medium was centrifuged at 12,000 × g for 15 min to pellet cellular debris, the cells were washed with fresh medium, detached with 0.01% trypsin/EDTA, re-suspended in 0.2 ml of 82.3 mM triethanolamine phosphate-HCl (pH 7.6), and sonicated on ice with two 10-sec bursts. LDH activity was measured in the extracellular medium and in the cell lysate: 50 μl of extracellular medium or 5 μl of cell lysate were incubated at 37°C with 5 mM NADH. The reaction was started by adding 20 mM pyruvic acid and was monitored for 6 min, measuring absorbance at 340 nm using a Synergy HT Multi-Detection Microplate Reader (Bio-Tek Instruments, Winoosky, MT, United States). The reaction kinetics were linear throughout the time of measurement. Both intracellular and extracellular enzyme activities were expressed as μmol NADH oxidized/min/dish. The results were expressed as percentage of extracellular LDH versus total (intracellular plus extracellular) LDH. Cell viability was measured by the neutral red staining method, as previously reported ([Riganti et al., 2015b]). The absorbance of untreated cells was considered as 100% viability; the results were expressed as percentage of viable cells versus untreated cells. IC50 was calculated with the CompuSyn software^1.

[2] = system: HMC (human mesothelial cells); experiment: Cell viability (neutral red), IC50; assay type: cell-based; conditions: HMC primary mesothelial cells, CompuSyn
Source text: as §1, §2

[3] = system: HMM (human malignant mesothelioma) cells; experiment: Cell viability (neutral red), IC50; assay type: cell-based; conditions: HMM primary malignant mesothelioma cells, CompuSyn
Source text: as §1, §2

[4] = system: HT29 cells; experiment: Cell viability (neutral red), IC50; assay type: cell-based; conditions: Homo sapiens, HT-29, HT29 colon cancer cells, CompuSyn
Source text: as §1, §2

[5] = system: MCF10A cells; experiment: Cell viability (neutral red), IC50; assay type: cell-based; conditions: Homo sapiens, MCF-10A, MCF10A normal breast epithelial cells, CompuSyn
Source text: as §1, §2

[6] = system: MDA-MB-231 cells; experiment: Cell viability (neutral red), IC50; assay type: cell-based; conditions: Homo sapiens, MDA-MB-231 breast cancer cells, CompuSyn
Source text: as §1, §2

[7] = system: Primary osteoblasts; experiment: Cell viability (neutral red), IC50; assay type: cell-based; conditions: Homo sapiens, Osteoblast, CompuSyn
Source text: as §1, §2

[8] = system: caspase 3; experiment: Caspase 3 activity in BEAS-2B cell lysates; assay type: cell-based, Human; conditions: 0.1 μM, 24 h
Description: The activity of caspase 9 and 3 was measured by incubating 20 μg cell lysates with the respective fluorogenic substrates Ac-LEHD-AMC (LEHD-AMC) or DEVD-AMC (DEVD-AMC), as reported ([Pinzón-Daza et al., 2012]). Results were expressed as nmoles AMC/mg protein.
(§3) FIGURE 7 Effects of phenol TPP-derivatives on mitochondria-dependent apoptosis. A549 and BEAS-2B cells were incubated 24 h in fresh medium (ctrl) or in medium containing 0.1 μM of 1 or 2. (A,B) The activity of caspase 9 and 3 was measured fluorimetrically, in duplicates. Data are means ± SD (n = 3). For both panels: ^∗p < 0.001 vs. A549 ctrl cells; °p < 0.001 for BEAS-2B cells vs. the corresponding condition in A549 cells. (C,D) Cell cycle distribution, measured in duplicates. Data are means ± SD (n = 3). For both panels: ^∗p < 0.001 vs. A549 ctrl cells: °p < 0.001 for BEAS-2B cells vs. the corresponding condition in A549 cells. (E) Bright field microscope analysis of cells. Magnification: 60 × objective (0.52 numerical aperture); 10 × ocular lens. Bar: 20 μM. The micrographs are representative of three experiments with similar results.

[9] = system: A549 cells; experiment: Cell cycle analysis (propidium iodide flow cytometry); assay type: cell-based, Human; conditions: 0.1 μM, 24 h
Description: (§4) 1 × 10^4 cells were harvested, washed with PBS, treated with 0.25 mg/ml RNAse and stained for 15 min with 50 μg/ml propidium iodide. Cell cycle distribution was analyzed by Guava® easyCyte flow cytometer (Millipore, Billerica, MA, United States), using the InCyte software (Millipore).
as §3

[10] = system: BEAS-2B cells; experiment: as above; assay type: cell-based, Human; conditions: 0.1 μM, 24 h
Description: as §4, §3

[11] = system: A549 cells; experiment: Bright field morphological analysis; assay type: cell-based, Human; conditions: 0.1 μM, 24 h, compared with untreated cells
Source text: as §1, §3

[12] = system: BEAS-2B cells; experiment: Bright field morphological analysis; assay type: cell-based, Human; conditions: 0.1 μM, 24 h
Source text: as §1, §3

[13] = system: U-2OS cells; experiment: Cell viability (neutral red), IC50; assay type: cell-based, Human; conditions: U-2OS osteosarcoma cells, CompuSyn

Work on `CC(=O)Oc1ccc(C[P+](c2ccccc2)(c2ccccc2)c2ccccc2)cc1.[Br-]` [Compound 1] yielded an IC50 [1] of 18.2 ± 1.29 µM, an IC50 [2] of 7.37 ± 0.89 µM and an IC50 [3] of 4.39 ± 0.35 µM. For the same compound, the IC50 [4] was 4.45 ± 0.78 µM, the IC50 [5] was 7.52 ± 0.43 µM and the IC50 [6] was 8.32 ± 1.25 µM. For the same compound, the IC50 [7] was 6.46 ± 0.83 µM, the “activity of caspase 3” value [8] was “remained similar to untreated cells” and the “percentage of cells in S-phase” value [9] was “reduced percentage”. For the same compound, the “percentage of cells in the sub-Go phase” value [9] was “increased”, the cell cycle distribution [10] was “no change” and the cell morphology [11] was “reduced cell number and a clear round-shaped morphology”. For the same compound, the cell morphology [12] was “decreased cell density without appreciable morphological signs of apoptosis”.

For `O=C(Oc1ccc(C[P+](c2ccccc2)(c2ccccc2)c2ccccc2)cc1C(F)(F)F)c1ccccc1.[Br-]` [Compound 2], the IC50 ([13]; Homo sapiens, U2OS) was less than 1 µM, the IC50 [13] was 0.63 ± 0.1 µM and the IC50 [1] was 7.89 ± 0.36 µM. For the same compound, the IC50 [2] was 39.1 ± 4.34 µM, the IC50 [3] was 0.82 ± 0.07 µM and the IC50 [4] was 3.81 ± 0.47 µM. For the same compound, the IC50 [5] was 6.32 ± 0.41 µM, the IC50 [6] was 0.34 ± 0.11 µM and the IC50 [7] was 3.41 ± 0.73 µM. For the same compound, the “activity of caspase 3” value [8] was “remained similar to untreated cells”, the “percentage of cells in S-phase” value [9] was “reduced percentage” and the “percentage of cells in the sub-Go phase” value [9] was “increased”. For the same compound, the cell cycle distribution [10] was “no change”, the cell morphology [11] was “reduced cell number and a clear round-shaped morphology” and the cell morphology [12] was “decreased cell density without appreciable morphological signs of apoptosis”.
